From US20220062233A1 (The Board of Trustees of the Leland Stanford Junior …, priority 2018, published 2022)

Experiments:
[1] = target: T1, interaction between Supt4h and NGN (subunit of Supt5h) (Homo sapiens, UniProt O00267+P63272); assay: Split Gaussia luciferase complementation assay (M2-8 Luciferase); assay type: cell-based; details: M2-8 cells
T1 construct: expressed in transfected cells
Protocol: A. Split Gaussia Luciferase Complementation Assay […]
i: pNBR-X1-Supt4-Gluc1 and pNEBR-X1-NGN-Gluc2
The HA-Supt4h and Flag-NGN fragments are amplified by PCR using the plasmid pHA-Supt4h-YC and pFlag-NGN-YN and sub-cloned individually into pcDNA3.1-Gluc1 and pcDNA3.1-Gluc2 (described in “A highly sensitive protein-protein interaction assay based on Gaussia luciferase” published at Nat Methods. 2006 December; 3(12):977-9. Epub 2006 Nov. 12). Then HA-Supt4h-Gluc1 and Flag-NGN-Gluc2 are amplified by PCR and inserted to pNEBR-X1-Hygro (New England BioLabs), which contain RheoSwitch responsive element under the control of RheoSwitch ligand. […]
ii: pNEBR-X1-Supt4h-G1-NGN-G2
PCR products containing the sequence from 5XRE to polyA in pNEBR-X1-NGN-G2 are inserted to pNEBR-X1-Supt4h-G1 at Pcil site to generate Supt4h-G1 and NGN-G2 bidirectional under their own RheoSwitch responsive element and polyA in the same plasmid. […]
b. Stable Cloned Cell Line i: 293-R1 is a cloned cell line which is engineered to constitutively express RSL1 receptor/activator by transfecting HEK 293 cells with pNEBR-R1 plasmid (New England BioLabs) and selected with blasticidin. […]
ii: M2-8 is a cloned 293-R1 cell which can inducibly express pNEBR-X1-Supt4h-G1-NGN-G2 by addition of RSL1. Two point mutations ([…] and M110I) are introduced to the GL1 and GL2 for better stability according to “A high-throughput cell-based Gaussia luciferase reporter assay for identifying modulators of fibulin-3 secretion” published in J Biomol Screen. 2013 July; 18(6):647-58. The cell line is selected by hygromycin. […]
c. Cell Culture and Transfection Condition
All the HEK-293 cells and derivative clones are maintained in DMEM containing 10% FBS plus corresponding antibiotics (250 μg/ml hygromycin B, 10 μg/ml blasticidin or both) at 37° C., 5% CO2. All the transfections are done by using Lipofectamine 2000 (Invitrogen) according to the manufacturer's instructions. […]
d. Bioluminescence Assay from Cell Lysates
Plasmids harboring the Gluc1 and Gluc2 are co-transfected in a 1:1 ratio into 293-R1 cells plated on tissue culture treated 24-well plates using Lipofectamine 2000 according to the manufacturer's instructions. For stable M2-8 cells, the cells are directly plated into 96-well or 384-well white plates. Twenty-four hours later, RheoSwitch ligand with or without test compound is added to the cells for induction/drug treatment. After 24 hr, the cells are washed with PBS and the plate was stored at −20° C. overnight. Lysis buffer [30 mM Tris-HCl (pH 8.0) 5 mM NaCl, 0.1% Triton X-100] with 10 μg/ml native coelenterazine (Nanolight Technology) is then added to the cells at room temperature for one hour in the dark. After shaking for about 1 min, 40 μl of cell lysate are transferred to a white 96-well plate. For M2-8 in white micro plate, no transfer is needed. Signal intensities (integrated 100 ms) were read on Tecan Infinite M200 or M1000.
The split Gaussia luciferase complementation assay measures the interaction between Sup4h and NGN. NGN is the subunit of Supt5h that binds to Supt4h.

M2-8 cells = assay: M2-8 Cell viability Assay; assay type: cell-based; details: at the concentration of 1000 nM

| SMILES | IC50 [1] | M2-8 Cell viability (M2-8 cells) |
| --- | --- | --- |
| COc1ccccc1CN[C@@H]1CCCc2c1[nH]c1ccc(Br)cc21 [Compound 23, (R)-6-bromo-N-(2-methoxybenzyl)-2,3,4,9-tetrahydro-1H-carbazol-1-amine] | 301 to 1000 nM | + (cell viability is greater than 50% at the concentration of 1000 nM) |
| OCc1cccc(CN[C@@H]2CCCc3c2[nH]c2ccc(Br)cc32)c1 [Compound 57, (R)-(3-(((6-bromo-2,3,4,9-tetrahydro-1H-carbazol-1-yl)amino)methyl)phenyl)methanol] | ≤ 100 nM | + (cell viability is greater than 50% at the concentration of 1000 nM) |
| Brc1ccc2[nH]c3c(c2c1)CCC[C@H]3NCc1ccc2ccccc2c1 [Compound 20, (R)-6-bromo-N-(naphthalen-2-ylmethyl)-2,3,4,9-tetrahydro-1H-carbazol-1-amine] | 101 to 300 nM | + (cell viability is greater than 50% at the concentration of 1000 nM) |
| COCC(N[C@@H]1CCCc2c1[nH]c1ccc(Br)cc21)c1ccc(CN2CCN(C(C)=O)CC2)cc1 (stereo partly shown) [Compound 62] | 101 to 300 nM | + (cell viability is greater than 50% at the concentration of 1000 nM) |
| CCc1ccc2[nH]c3c(c2c1)CCC[C@H]3NCc1ccccc1 [Compound 6] | 301 to 1000 nM | + (cell viability is greater than 50% at the concentration of 1000 nM) |
| CC(C)(O)c1ccc(C(CF)N[C@@H]2CCCc3c2[nH]c2ccc(Br)cc32)cc1 (single isomer, unassigned) [Compound 55] | ≤ 100 nM | + (cell viability is greater than 50% at the concentration of 1000 nM) |
| CN(C)c1ccc(CN[C@@H]2CCCc3c2[nH]c2ccc(Br)cc32)cc1 [Compound 29, (R)-6-bromo-N-(4-(dimethylamino)benzyl)-2,3,4,9-tetrahydro-1H-carbazol-1-amine] | 101 to 300 nM | + (cell viability is greater than 50% at the concentration of 1000 nM) |
| CC(=O)N1CCN(Cc2ccc(CN[C@@H]3CCCc4c3[nH]c3ccc(Br)cc43)cc2)CC1 [Compound 73] | 101 to 300 nM | + (cell viability is greater than 50% at the concentration of 1000 nM) |
| Brc1ccc2[nH]c3c(c2c1)CCC[C@H]3NCc1ccc(CN2CCOCC2)cc1 [Compound 72] | ≤ 100 nM | + (cell viability is greater than 50% at the concentration of 1000 nM) |
| OCC#Cc1ccc2[nH]c3c(c2c1)CCC[C@H]3NCc1ccccc1 [Compound 7, (R)-3-(1-(benzylamino)-2,3,4,9-tetrahydro-1H-carbazol-6-yl)prop-2-yn-1-ol] | 301 to 1000 nM | + (cell viability is greater than 50% at the concentration of 1000 nM) |
| CC(C)(O)c1ccc(C(CO)N[C@@H]2CCCc3c2[nH]c2ccc(Br)cc32)cc1 (mixture of isomers) [Compound 51, 2-(4-(1-(((R)-6-bromo-2,3,4,9-tetrahydro-1H-carbazol-1-yl)amino)-2-hydroxyethyl)phenyl) propan-2-ol] | 301 to 1000 nM | + (cell viability is greater than 50% at the concentration of 1000 nM) |
| COCC(N[C@@H]1CCCc2c1[nH]c1ccc(Br)cc21)c1ccc(CN2CCOCC2)cc1 (stereo partly shown) [Compound 61] | 101 to 300 nM | + (cell viability is greater than 50% at the concentration of 1000 nM) |
| OCCc1ccc2[nH]c3c(c2c1)CCC[C@H]3NCc1ccccc1 [Compound 12, (R)-2-(1-(benzylamino)-2,3,4,9-tetrahydro-1H-carbazol-6-yl)ethan-1-ol] | > 1000 nM | + (cell viability is greater than 50% at the concentration of 1000 nM) |
| Cn1c2c(c3cc(Br)ccc31)CCCC2NCc1ccccc1 (stereo not shown) [Compound 18] | > 1000 nM | + (cell viability is greater than 50% at the concentration of 1000 nM) |
